The source made the active and inactive calls. No cut-off for these calls is given here.
Tested on: Mus musculus
Test: Inhibition of liver [3H]cholesterol absorption in C57BL/6 mouse at 0.2 ml in 0.25% methocel suspension, po dosed 30 mins before [3H]cholesterol administration measured after 1.5 to 5 hrs
Type: functional, organism-based

CC(C)(C)c1ccc(C(=O)N2CCC3(CC2)C(=O)N(CC(=O)N2CCCCC2)CN3c2ccccc2)cc1
inhibition: inactive

From ChEMBL document CHEMBL1136903, “Spiroimidazolidinone NPC1L1 inhibitors. 1: Discovery by 3D-similarity-based virtual screening” (Bioorg Med Chem Lett, 2009)
